Assay results as given in patent US10000500B2 (PROMEGA CORPORATION, priority 2016, dated 2018).

Target: NANOLUC® Luciferase (Oplophorus gracilirostris, UniProt Q9GV45, A31E/A60N/A81I/F95D/I117V/K70R/L54V/L99Q/M102K/N193R/P142E/Q151K/Q38R/Q45L/V71I/Y165I)
Experiment: Luminescence assay with purified NANOLUC luciferase (Example 7)
Type: biochemical
Conditions: bioluminescence with NANOLUC luciferase
Experimental: Each compound to be screened was dissolved in DMSO (5 mM) and then further diluted to 100 uM in NANO-GLO® Luciferase Assay Buffer. Each diluted substrate was then combined in equal volumes with purified NANOLUC® Luciferase diluted into CO2 independent media+10% FBS. Initial light output for each substrate was measured in a GLOMAXI-Multi+luminometer three minutes after substrate addition and then at five minute intervals as a means to determine signal half-life.
The synthesized coelenterazine analogues (compounds of formula (I) and (II)) were evaluated for their suitability as luciferase substrates. NANOLUC® luciferase was employed for the screening because it is a small (19 kDa), stable, and particularly bright enzyme.

Chain of NANOLUC® Luciferase (Q9GV45 28-196 with tags or gaps with the stated changes limits assumed): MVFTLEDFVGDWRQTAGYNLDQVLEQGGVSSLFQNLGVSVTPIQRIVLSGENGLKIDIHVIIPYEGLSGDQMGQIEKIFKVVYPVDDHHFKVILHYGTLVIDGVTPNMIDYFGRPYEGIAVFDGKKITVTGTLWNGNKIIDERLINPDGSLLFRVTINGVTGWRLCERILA

| Structure (SMILES) | λmax, nm [nm] |
| --- | --- |
| O=c1c(Cc2ccco2)nc2c(-c3ccc(F)nc3)[nH]c(-c3ccccc3)cn1-2 [AS-273, 8-(6-fluoropyridin-3-yl)-2-(furan-2-ylmethyl)-6-phenylimidazo[1,2-a]pyrazin-3(7H)-one] | 496 |
| N#Cc1ccc(-c2[nH]c(-c3ccccc3)cn3c(=O)c(Cc4ccco4)nc2-3)cc1 [AS-237, 4-(2-(furan-2-ylmethyl)-3-oxo-6-phenyl-3,7-dihydroimidazo[1,2-a]pyrazin-8-yl)benzonitrile] | 559 |
| N#Cc1cccc(-c2[nH]c(-c3ccccc3)cn3c(=O)c(Cc4ccco4)nc2-3)c1 [AS-274, 3-(2-(furan-2-ylmethyl)-3-oxo-6-phenyl-3,7-dihydroimidazo[1,2-a]pyrazin-8-yl)benzonitrile] | 514 |
| O=c1c(Cc2ccco2)nc2c(-c3cccs3)[nH]c(-c3ccccc3)cn1-2 [AS-236, 2-(furan-2-ylmethyl)-6-phenyl-8-(thiophen-2-yl)imidazo[1,2-a]pyrazin-3(7H)-one] | 514 |
| O=c1c(Cc2ccco2)nc2c(-c3ccccc3)[nH]c(-c3ccccc3)c(-c3ccccc3)n1-2 [AS-248, 2-(furan-2-ylmethyl)-5,6,8-triphenylimidazo[1,2-a]pyrazin-3(7H)-one] | 520 |
| Cn1cc(-c2[nH]c(-c3ccccc3)cn3c(=O)c(Cc4ccco4)nc2-3)ccc1=O [AS-256, 2-(furan-2-ylmethyl)-8-(1-methyl-6-oxo-1,6-dihydropyridin-3-yl)-6-phenylimidazo[1,2-a]pyrazin-3(7H)-one] | 496 |
| O=c1c(Cc2ccco2)nc2c(-c3ccc(F)cc3)[nH]c(-c3ccccc3)cn1-2 [AS-269, 8-(4-fluorophenyl)-2-(furan-2-ylmethyl)-6-phenylimidazo[1,2-a]pyrazin-3(7H)-one] | 490 |
| O=c1c(Cc2ccco2)nc2c(-c3ccc(Cl)s3)[nH]c(-c3ccccc3)cn1-2 [AS-280, 8-(5-chlorothiophen-2-yl)-2-(furan-2-ylmethyl)-6-phenylimidazo[1,2-a]pyrazin-3(7H)-one] | 523 |
| O=c1c(Cc2ccco2)nc2c(-c3cccnc3F)[nH]c(-c3ccccc3)cn1-2 [AS-272, 8-(2-fluoropyridin-3-yl)-2-(furan-2-ylmethyl)-6-phenylimidazo[1,2-a]pyrazin-3(7H)-one] | 508 |
| O=c1c(Cc2ccco2)nc2c(-c3cccnc3)[nH]c(-c3ccccc3)cn1-2 [AS-277, 2-(furan-2-ylmethyl)-6-phenyl-8-(pyridin-3-yl)imidazo[1,2-a]pyrazin-3(7H)-one] | 517 |
| Nc1ccc(-c2cn3c(=O)c(Cc4ccco4)nc-3c(-c3ccnc4ccccc34)[nH]2)cc1 [AS-330, 6-(4-aminopheny1)-2-(furan-2-ylmethyl)-8-(quinolin-4-yl)imidazo[1,2-a]pyrazin-3(7H)-one] | 583 |
| O=c1c(Cc2ccco2)nc2c(-c3ccsc3)[nH]c(-c3ccccc3)cn1-2 [AS-229, 2-(furan-2-ylmethyl)-6-phenyl-8-(thiophen-3-yl)imidazo[1,2-a]pyrazin-3(7H)-one] | 496 |
| O=c1c(Cc2ccco2)nc2c(-c3ccnc(Cl)c3)[nH]c(-c3ccccc3)cn1-2 [AS-275, 8-(2-chloropyridin-4-yl)-2-(furan-2-ylmethyl)-6-phenylimidazo[1,2-a]pyrazin-3(7H)-one] | 535 |
| O=c1c(Cc2ccco2)nc2c(-c3ccnc(F)c3)[nH]c(-c3cccs3)cn1-2 [AS-306, 8-(2-fluoropyridin-4-yl)-2-(furan-2-ylmethyl)-6-(thiophen-2-yl)imidazo[1,2-a]pyrazin-3(7H)-one] | 544 |
| Nc1ccc(-c2cn3c(=O)c(Cc4ccco4)nc-3c(-c3ccnc(Cl)c3)[nH]2)cc1 | 571 |
| O=c1c(Cc2ccco2)nc2c(-c3sccc3Cl)[nH]c(-c3ccccc3)cn1-2 [AS-282, 8-(3-chlorothiophen-2-yl)-2-(furan-2-ylmethyl)-6-phenylimidazo[1,2-a]pyrazin-3(7H)-one] | 505 |
| CN(C)c1ccc(-c2[nH]c(-c3ccccc3)cn3c(=O)c(Cc4ccco4)nc2-3)cc1 [AS-224, 8-(4-(dimethylamino)phenyl)-2-(furan-2-ylmethyl)-6-phenylimidazo[1,2-a]pyrazin-3(7H)-one] | 502 |
| O=c1c(Cc2ccco2)nc2c(-c3cccc4ccccc34)[nH]c(-c3ccccc3)cn1-2 [AS-215, 2-(furan-2-ylmethyl)-8-(naphthalen-1-yl)-6-phenylimidazo[1,2-a]pyrazin-3(7H)-one] | 517 |

| Structure (SMILES) | λmax, nm [nm] |
| --- | --- |
| N#Cc1ccc(-c2[nH]c(-c3ccc(N)cc3)cn3c(=O)c(Cc4ccco4)nc2-3)s1 [AS-332, 5-(6-(4-aminophenyl)-2-(furan-2-ylmethyl)-3-oxo-3,7-dihydroimidazo[1,2-a]pyrazin-8-yl)thiophene-2-carbonitrile] | 598 |
| Cn1cc(-c2[nH]c(-c3ccn(C)n3)cn3c(=O)c(Cc4ccco4)nc2-3)cn1 [AS-190, 2-(furan-2-ylmethyl)-6-(1-methyl-1H-pyrazol-3-yl)-8-(1-methyl-1H-pyrazol-4-yl)imidazo[1,2-a]pyrazin-3(7H)-one] | 496 |
| O=c1c(Cc2ccco2)nc2c(-c3cccs3)[nH]c(-c3cccs3)cn1-2 [AS-176, 2-(furan-2-ylmethyl)-6,8-di(thiophen-2-yl)imidazo[1,2-a]pyrazin-3(7H)-one] | 496 |
| O=c1c(Cc2ccco2)nc2c(-c3ccc4scnc4c3)[nH]c(-c3ccccc3)cn1-2 [AS-250, 8-(benzo[d]thiazol-5-yl)-2-(furan-2-ylmethyl)-6-phenylimidazo[1,2-a]pyrazin-3(7H)-one] | 511 |
| Nc1cccc(-c2cn3c(=O)c(Cc4ccco4)nc-3c(Cc3ccccc3)[nH]2)c1 [JRW-0438, 6-(3-aminophenyl)-8-benzyl-2-(furan-2-ylmethyl)imidazo[1,2-a]pyrazin-3(7H)-one] | 487 |
| O=c1c(Cc2ccco2)nc2c(-c3cc(F)c(F)c(F)c3)[nH]c(-c3ccccc3)cn1-2 [AS-270, 2-(furan-2-ylmethyl)-6-pheny1-8-(3,4,5-trifluorophenyl)imidazo[1,2-a]pyrazin-3(7H)-one] | 502 |
| O=c1c(Cc2ccco2)nc2c(-c3ccnc(Cl)c3)[nH]c3c(n1-2)CCc1ccccc1-3 [AS-342, 12-(2-chloropyridin-4-yl)-2-(furan-2-ylmethyl)-5,11-dihydrobenzo[f]imidazo[1,2-a]quinoxalin-3(6H)-one] | 538 |
| O=c1c(Cc2ccco2)nc2c(-c3ccco3)[nH]c(-c3ccco3)cn1-2 [AS-175, 6,8-di(furan-2-yl)-2-(furan-2-ylmethyl)imidazo[1,2-a]pyrazin-3(7H)-one] | 514 |
| Cn1c(C#N)ccc1-c1[nH]c(-c2ccccc2)cn2c(=O)c(Cc3ccco3)nc1-2 [AS-311, 5-(2-(furan-2-ylmethyl)-3-oxo-6-phenyl-3,7-dihydroimidazo[1,2-a]pyrazin-8-yl)-1-methyl-1H-pyrrole-2-carbonitrile] | 505 |
| O=c1c(Cc2ccco2)nc2c(C#Cc3ccccc3)[nH]c(-c3ccccc3)cn1-2 [AS-242, 2-(furan-2-ylmethyl)-6-phenyl-8-(phenylethynyl)imidazo[1,2-a]pyrazin-3(7H)-one] | 517 |
| O=c1c(Cc2ccco2)nc2c(-c3ccnc4ccccc34)[nH]c3c(n1-2)CCc1ccccc1-3 [AS-341, 2-(furan-2-ylmethyl)-12-(quinolin-4-yl)-5,11-dihydrobenzo[f]imidazo[1,2-a]quinoxalin-3(6H)-one] | 583 |
| Nc1ccc(-c2cn3c(=O)c(Cc4ccco4)nc-3c(Cc3ccccc3)[nH]2)cc1 [JRW-0445, 6-(4-aminophenyl)-8-benzyl-2-(furan-2-ylmethyl)imidazo[1,2-a]pyrazin-3(7H)-one] | 502 |
| N#Cc1c(-c2ccccc2)[nH]c(-c2ccnc(F)c2)c2nc(Cc3ccco3)c(=O)n1-2 [AS-301, 8-(2-fluoropyridin-4-yl)-2-(furan-2-ylmethyl)-3-oxo-6-phenyl-3,7-dihydroimidazo[1,2-a]pyrazine-5-carbonitrile] | 529 |
| O=c1c(Cc2ccco2)nc2c(-c3ccncc3)[nH]c(-c3ccccc3)cn1-2 [AS-276, 2-(furan-2-ylmethyl)-6-phenyl-8-(pyridin-4-yl)imidazo[1,2-a]pyrazin-3(7H)-one] | 523 |
| O=c1c(Cc2ccco2)nc2c(-c3cccnc3Cl)[nH]c(-c3ccccc3)cn1-2 [AS-278, 8-(2-chloropyridin-3-yl)-2-(furan-2-ylmethyl)-6-phenylimidazo[1,2-a]pyrazin-3(7H)-one] | 499 |
| O=c1c(Cc2ccco2)nc2c(-c3ccnc(F)c3)[nH]c(-c3ccccc3)cn1-2 [AS-271, 8-(2-fluoropyridin-4-yl)-2-(furan-2-ylmethyl)-6-phenylimidazo[1,2-a]pyrazin-3(7H)-one] | 532 |
| O=c1c(Cc2ccco2)nc2c(-c3ccnc(Br)c3)[nH]c(-c3ccccc3)cn1-2 [AS-314, 8-(2-bromopyridin-4-yl)-2-(furan-2-ylmethyl)-6-phenylimidazo[1,2-a]pyrazin-3(7H)-one] | 538 |
